Legend:
Assay in all cases: relative viability (nuclei count vs DMSO), 5 days (fraction); higher = more cells survive
[1] = compound: C1/C(=C\C2=CC=CS2)/C(=O)/C(=C/C3=CC=CS3)/C1 + COc1cccc2cc(-c3nc([C@H]4CC[C@H](C(=O)O)CC4)n4ncnc(N)c34)[nH]c12 [OSI-027] (partner 0.5 µM)
Method in brief: (§1)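 Five library-drug doses in √10 steps were combined with a fixed anchor-drug dose, or a single drug was given alone, by pin tool to lung cancer cell lines in 1536-well plates the day after seeding. Nuclei were stained and counted after 5 days. Relative viability is the nuclei count in treated wells over that in vehicle wells, taken as the median of duplicate plates.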

[2] = compound: C1/C(=C\C2=CC=CS2)/C(=O)/C(=C/C3=CC=CS3)/C1 + Nc1ncn([C@H]2C[C@H](O)[C@@H](CO)O2)c(=O)n1 [Decitabine] (partner 2 µM)
Method in brief: as §1

TPCA-1 + Navitoclax = compound: C1=CC(=CC=C1C2=CC(=C(S2)NC(=O)N)C(=O)N)F [TPCA-1] + CC1(C)CCC(c2ccc(Cl)cc2)=C(CN2CCN(c3ccc(C(=O)NS(=O)(=O)c4ccc(N[C@H](CCN5CCOCC5)CSc5ccccc5)c(S(=O)(=O)C(F)(F)F)c4)cc3)CC2)C1 [Navitoclax] (partner 0.5 µM)
Method in brief: as §1

TPCA-1 + AZD7762 = compound: C1=CC(=CC=C1C2=CC(=C(S2)NC(=O)N)C(=O)N)F [TPCA-1] + NC(=O)Nc1cc(-c2cccc(F)c2)sc1C(=O)N[C@H]1CCCNC1 [AZD7762] (partner 0.2 µM)
Method in brief: as §1

Cell Line	relative viability ([1]; first compound 0.2 µM)	relative viability ([1]; first compound 0.6325 µM)	relative viability ([1]; first compound 2 µM)	relative viability ([1]; first compound 6.325 µM)	relative viability ([1]; first compound 20 µM)	relative viability ([2]; first compound 0.2 µM)	relative viability ([2]; first compound 0.6325 µM)	relative viability ([2]; first compound 2 µM)	relative viability ([2]; first compound 6.325 µM)	relative viability ([2]; first compound 20 µM)	relative viability (TPCA-1 + Navitoclax; first compound 0.04 µM)	relative viability (TPCA-1 + Navitoclax; first compound 0.1265 µM)	relative viability (TPCA-1 + Navitoclax; first compound 0.4 µM)	relative viability (TPCA-1 + Navitoclax; first compound 1.265 µM)	relative viability (TPCA-1 + Navitoclax; first compound 4 µM)	relative viability (TPCA-1 + AZD7762; first compound 0.04 µM)	relative viability (TPCA-1 + AZD7762; first compound 0.1265 µM)	relative viability (TPCA-1 + AZD7762; first compound 0.4 µM)	relative viability (TPCA-1 + AZD7762; first compound 1.265 µM)	relative viability (TPCA-1 + AZD7762; first compound 4 µM)
NCI-H3122	1.17	0.956	1	0.889	1.01	0.509	0.375	0.472	0.381	0.463	0.995	1.01	1.04	1.02	1.01	1.1	0.97	1.04	0.941	0.957
NCI-H1395	0.672	0.614	0.772	0.597	0.643	0.729	0.777	0.754	0.679	0.729	1.2	0.932	1.25	1.05	0.99	0.398	0.378	0.381	0.37	0.444
NCI-H1651	0.684	0.803	0.815	0.676	0.789	0.616	0.646	0.868	0.357	0.587	0.97	0.913	0.947	1.16	0.995	0.486	0.439	0.462	0.431	0.401
HARA	0.525	0.437	0.502	0.379	0.57	0.755	0.571	0.558	0.529	0.595	1.13	1.08	1.16	1.08	1.08	0.317	0.504	0.39	0.471	0.349
NCI-H1944	0.464	0.409	0.464	0.408	0.425	0.423	0.427	0.439	–	0.392	1.07	0.949	1.06	0.921	0.823	0.474	0.484	0.565	0.455	0.474
NCI-H2347	0.482	0.391	0.429	–	0.389	0.689	0.581	0.628	0.57	0.633	0.788	0.855	0.726	0.568	0.762	0.729	0.717	0.923	0.739	0.633
201T	0.691	0.753	0.82	0.662	0.69	0.862	0.87	0.826	0.843	0.811	1.2	1.17	1.19	1.2	1.25	0.704	0.63	0.627	0.582	0.558
PC-14	0.916	0.854	0.805	0.749	0.766	0.224	0.242	0.233	0.2	0.216	1.03	0.876	1.01	1.09	0.913	0.471	0.305	0.374	0.696	0.43
NCI-H727	0.716	0.58	0.975	0.592	0.582	0.939	0.976	1.2	–	0.981	0.409	0.431	0.512	0.413	0.404	0.596	0.68	0.497	0.701	0.698
NCI-H1792	0.84	0.619	0.754	0.694	0.67	0.642	0.519	0.561	0.495	0.496	0.714	0.622	0.677	0.621	0.279	0.623	0.62	0.596	0.483	0.363
ChaGo-K-1	0.549	0.59	0.588	0.491	0.268	0.528	0.394	0.494	0.436	0.242	0.959	0.927	1.13	0.98	0.406	0.869	0.883	0.904	0.8	0.522
HOP-62	0.836	0.73	0.851	0.771	0.872	0.211	0.202	0.199	0.221	0.202	0.982	1.06	1.02	0.899	0.809	0.554	0.557	0.669	0.523	0.436
NCI-H1915	0.636	0.632	0.657	0.249	0.681	0.261	0.279	0.246	0.232	0.268	0.788	0.733	0.783	0.771	0.694	0.744	0.679	0.671	0.588	0.617
BEN	0.258	0.275	0.352	0.288	0.282	0.666	0.724	0.893	0.643	0.644	0.0874	0.0533	0.0644	0.0802	0.0674	0.677	0.665	0.9	1.08	0.505
NCI-H1437	0.866	0.782	0.889	0.88	0.834	0.547	0.521	0.508	0.518	0.612	1.11	1.05	1.13	1.07	1.08	1.19	–	1.14	1.03	0.906
EMC-BAC-2	0.411	0.383	0.432	0.337	0.389	1	0.968	1.03	0.909	0.924	1.21	1.19	1.14	1.13	1.01	1.15	1.09	1.27	1.03	0.72

— the supplement of paper PMC10307832
